Where “and” joins values, the source holds several entries; their conditions need not be identical. Equal values may be shown once.
System: 388556-164-R-J1-PDC complex spheroid viability
Assay: Anticancer human tumor 388556-164-R-J1-PDC patient-derived colon adenocarcinoma cell line growth inhibition [RAS]
Details: for viability, T/C: stronger effect = lower value
In short: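 Tumour cells grown as complex spheroids with HUVEC endothelial cells and mesenchymal stem cells, treated with RAS pathway inhibitor combinations. Each agent spans half-log steps from near clinical Cmax, or 10 microM where Cmax is unknown.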
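Note: spheroids exposed to compound for 7 days before readout.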
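Throughout, for viability, T/C: 100% = DMSO vehicle control luminescence.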

SMILES: C[C@@H](NC(=O)c1ncnc(N)c1Cl)c1ncc(C(=O)Nc2cc(C(F)(F)F)c(Cl)cn2)s1 + CCn1c(-c2cc(N3CCN(C)CC3)cnc2C(C)OC)c2c3cc(ccc31)-c1csc(n1)CC(NC(=O)C1CC1C)C(=O)N1CCCC(N1)C(=O)OCC(C)(C)C2
- IC50 (curve of first compound, second compound 0.000949 µM): > 10 µM
- IC50 (curve of first compound, second compound 0.003 µM): > 10 µM
- IC50 (curve of first compound, second compound 0.00949 µM): > 10 µM
- IC50 (curve of first compound, second compound 0.03 µM): > 10 µM
- IC50 (curve of first compound, second compound 0.0949 µM): > 10 µM
- IC50 (curve of first compound, second compound 0.3 µM): < 0.0316 µM
- viability, T/C (second compound 0.000949 µM, first compound 0.0316 µM): 96.3%
- viability, T/C (second compound 0.000949 µM, first compound 0.1 µM): 127%
- viability, T/C (second compound 0.000949 µM, first compound 0.316 µM): 105%
- viability, T/C (second compound 0.000949 µM, first compound 1 µM): 117%
- viability, T/C (second compound 0.000949 µM, first compound 3.16 µM): 129%
- viability, T/C (second compound 0.000949 µM, first compound 10 µM): 109%
- viability, T/C (second compound 0.003 µM, first compound 0.0316 µM): 114%
- viability, T/C (second compound 0.003 µM, first compound 0.1 µM): 100%
- viability, T/C (second compound 0.003 µM, first compound 0.316 µM): 86.5%
- viability, T/C (second compound 0.003 µM, first compound 1 µM): 101%
- viability, T/C (second compound 0.003 µM, first compound 3.16 µM): 111%
- viability, T/C (second compound 0.003 µM, first compound 10 µM): 105%
- viability, T/C (second compound 0.00949 µM, first compound 0.0316 µM): 85%
- viability, T/C (second compound 0.00949 µM, first compound 0.1 µM): 87.1%
- viability, T/C (second compound 0.00949 µM, first compound 0.316 µM): 89.5%
- viability, T/C (second compound 0.00949 µM, first compound 1 µM): 82.2%
- viability, T/C (second compound 0.00949 µM, first compound 3.16 µM): 102%
- viability, T/C (second compound 0.00949 µM, first compound 10 µM): 104%
- viability, T/C (second compound 0.03 µM, first compound 0.0316 µM): 75.7%
- viability, T/C (second compound 0.03 µM, first compound 0.1 µM): 67.9%
- viability, T/C (second compound 0.03 µM, first compound 0.316 µM): 91%
- viability, T/C (second compound 0.03 µM, first compound 1 µM): 75.1%
- viability, T/C (second compound 0.03 µM, first compound 3.16 µM): 78.8%
- viability, T/C (second compound 0.03 µM, first compound 10 µM): 72.4%
- viability, T/C (second compound 0.0949 µM, first compound 0.0316 µM): 50.2%
- viability, T/C (second compound 0.0949 µM, first compound 0.1 µM): 54.3%
- viability, T/C (second compound 0.0949 µM, first compound 0.316 µM): 54.3%
- viability, T/C (second compound 0.0949 µM, first compound 1 µM): 63.9%
- viability, T/C (second compound 0.0949 µM, first compound 3.16 µM): 71%
- viability, T/C (second compound 0.0949 µM, first compound 10 µM): 61.4%
- viability, T/C (second compound 0.3 µM, first compound 0.0316 µM): 34.3%
- viability, T/C (second compound 0.3 µM, first compound 0.1 µM): 33.2%
- viability, T/C (second compound 0.3 µM, first compound 0.316 µM): 38.6%
- viability, T/C (second compound 0.3 µM, first compound 1 µM): 41.6%
- viability, T/C (second compound 0.3 µM, first compound 3.16 µM): 38.5%
- viability, T/C (second compound 0.3 µM, first compound 10 µM): 44.1%

SMILES: C[C@@H](NC(=O)c1ncnc(N)c1Cl)c1ncc(C(=O)Nc2cc(C(F)(F)F)c(Cl)cn2)s1 + C#Cc1c(F)ccc2cc(O)cc(-c3ncc4c(N5CC6CCC(C5)N6)nc(OCC56CCCN5CC(F)C6)nc4c3F)c12
- IC50 (curve of first compound, second compound 0.0316 µM): > 10 µM
- IC50 (curve of first compound, second compound 0.1 µM): > 10 µM
- IC50 (curve of first compound, second compound 0.316 µM): > 10 µM
- IC50 (curve of first compound, second compound 1 µM): > 10 µM
- IC50 (curve of first compound, second compound 3.16 µM): > 10 µM
- IC50 (curve of first compound, second compound 10 µM): > 10 µM
- viability, T/C (second compound 0.0316 µM, first compound 0.0316 µM): 112%
- viability, T/C (second compound 0.0316 µM, first compound 0.1 µM): 124%
- viability, T/C (second compound 0.0316 µM, first compound 0.316 µM): 117%
- viability, T/C (second compound 0.0316 µM, first compound 1 µM): 116%
- viability, T/C (second compound 0.0316 µM, first compound 3.16 µM): 116%
- viability, T/C (second compound 0.0316 µM, first compound 10 µM): 111%
- viability, T/C (second compound 0.1 µM, first compound 0.0316 µM): 114%
- viability, T/C (second compound 0.1 µM, first compound 0.1 µM): 112%
- viability, T/C (second compound 0.1 µM, first compound 0.316 µM): 120%
- viability, T/C (second compound 0.1 µM, first compound 1 µM): 113%
- viability, T/C (second compound 0.1 µM, first compound 3.16 µM): 122%
- viability, T/C (second compound 0.1 µM, first compound 10 µM): 108%
- viability, T/C (second compound 0.316 µM, first compound 0.0316 µM): 113%
- viability, T/C (second compound 0.316 µM, first compound 0.1 µM): 115%
- viability, T/C (second compound 0.316 µM, first compound 0.316 µM): 101%
- viability, T/C (second compound 0.316 µM, first compound 1 µM): 117%
- viability, T/C (second compound 0.316 µM, first compound 3.16 µM): 112%
- viability, T/C (second compound 0.316 µM, first compound 10 µM): 77.1%
- viability, T/C (second compound 1 µM, first compound 0.0316 µM): 105%
- viability, T/C (second compound 1 µM, first compound 0.1 µM): 104%
- viability, T/C (second compound 1 µM, first compound 0.316 µM): 98.2%
- viability, T/C (second compound 1 µM, first compound 1 µM): 111%
- viability, T/C (second compound 1 µM, first compound 3.16 µM): 108%
- viability, T/C (second compound 1 µM, first compound 10 µM): 79.2%
- viability, T/C (second compound 3.16 µM, first compound 0.0316 µM): 103%
- viability, T/C (second compound 3.16 µM, first compound 0.1 µM): 84%
- viability, T/C (second compound 3.16 µM, first compound 0.316 µM): 84%
- viability, T/C (second compound 3.16 µM, first compound 1 µM): 105%
- viability, T/C (second compound 3.16 µM, first compound 3.16 µM): 96.5%
- viability, T/C (second compound 3.16 µM, first compound 10 µM): 70%
- viability, T/C (second compound 10 µM, first compound 0.0316 µM): 74%
- viability, T/C (second compound 10 µM, first compound 0.1 µM): 80.4%
- viability, T/C (second compound 10 µM, first compound 0.316 µM): 72.8%
- viability, T/C (second compound 10 µM, first compound 1 µM): 96%
- viability, T/C (second compound 10 µM, first compound 3.16 µM): 63.9%
- viability, T/C (second compound 10 µM, first compound 10 µM): 74.2%

SMILES: C=CC(=O)N1CCN(c2nc(OCC3CCCN3C)nc3c(F)c(-c4nc(N)cc(C)c4C(F)(F)F)c(Cl)cc23)C(C)C1 (stereo not drawn)
- viability, T/C (compound 0.00316 µM): 100% [middle of 11 runs]
- viability, T/C (compound 0.0316 µM): 99.2% [middle of 11 runs]
- viability, T/C (compound 0.1 µM): 105% [middle of 11 runs]
- viability, T/C (compound 0.316 µM): 102% [middle of 11 runs]
- viability, T/C (compound 1 µM): 98% [middle of 11 runs]
- IC50 (compound alone, run of 09/09/2024): > 1 µM
- IC50 (curve of compound): > 1 µM

SMILES: CC1(C)CCC(Nc2ncc(C(F)(F)F)c(-c3c[nH]c4c(P(C)(C)=O)c(C#N)ccc34)n2)CN1 (stereo not drawn)
- viability, T/C (compound 0.000949 µM): 89.6% and 97.1% and 84.3%
- viability, T/C (compound 0.003 µM): 93.9% and 97.5% and 113%
- viability, T/C (compound 0.00949 µM): 95.5% and 100% and 114%
- viability, T/C (compound 0.03 µM): 94.3% and 100% (2×)
- viability, T/C (compound 0.0949 µM): 88.2% and 94.4% and 107%
- viability, T/C (compound 0.3 µM): 87% and 84.8% and 87.1%
- IC50 (curve of compound): > 0.3 µM
